We go through seven compounds from paper PMC8504577, “Evaluation of a Clinically Relevant Drug–Drug Interaction Between Rosuvastatin and Clopidogrel and the Risk of Hepatotoxicity” (Frontiers in Pharmacology, 2021).

On the set-up of data set [1]: method as in Tornio et al. (2014). As to conditions: ref Tornio et al. (2014); cited from earlier work.
For data set [2] the following is noted: for Imax,u, unbound steady-state plasma peak concentration: fu×I1.
The conditions of data set [3]: cited from earlier work.
The subject of data set [4] is OATP1B1. The settings on record: ref Tamraz et al. (2013), cited from earlier work.
Data set [5] in a line: Plasma pharmacokinetic study in rats. The settings on record: for AUC0–12h: rat plasma. On the procedure: For the plasma pharmacokinetic study, 16 rats were randomly assigned into four groups (n = 4, each group, groups I to IV) and received oral (p.o.) administrations as oral gavage of CP (27 mg/kg) or the same volume of vehicle control for 20 days. Then, the rats were made to fast overnight before dosing but with free access to water. On day 21, rats in group I were treated with a p.o. dose as oral gavage of CP at 27 mg/kg and a single intravenous (i.v.) dose of RSV at 5 mg/kg. Rats in group II were treated with a p.o. dose as oral gavage of vehicle control and a single i.v. dose of RSV at 5 mg/kg. Rats in group Ⅲ were treated with a p.o. dose as oral gavage of CP at 27 mg/kg and a p.o. dose as oral gavage of RSV at 5 mg/kg. Rats in group Ⅳ were treated with a p.o. dose as oral gavage of vehicle control and a p.o. dose as oral gavage of RSV at 5 mg/kg. Blood samples (0.15 ml) were collected at 0, 1, 2, 5, 15, 30, 60, 120, 180, 360, 480, 600, and 720 min after administration of the i.v. dose of the RSV group and at 0, 5, 30, 60, 120, 180, 360, 480, 600, and 720 min for the p.o. dose as oral gavage of the RSV group. After each sampling, a volume of 0.15 ml physiologic saline solutions was administered to sustain isotonic fluid balance. Plasma samples were harvested by using a centrifuge and then stored at −80°C until analysis by LC-MS/MS.
A Shimadzu LC-30AD liquid chromatography system (Shimadzu, Kyoto, Japan) and an API4000 triple quadruple tandem mass spectrometer (Applied Biosystems/Sciex, Framingham, MA, United States) coupled with an ESI source was used for the LC-MS/MS analysis of in vivo samples. The separation was carried out on an Agilent Extend C18 column (1.8 µm, 4.6 mm × 30 mm, Agilent Technologies). The mobile phase consisting of acetonitrile (A) and water (B: 1 mM ammonium acetate and 1% (V/V) formic acid). […] The flow rate was 1 ml/min and the gradient elution method was as follows: 0.01 min (10% A)-0.4 min (10% A), 0.8 min (95% A)-2.0 min (95% A), and 2.3 min (10% A)-2.5 min (stop).
(§1) Phoenix WinNonlin® 7.1 (Pharsight Corporation, Mountain View, CA, United States) was used to calculate the pharmacokinetic parameters by the noncompartmental method. IC50 values were obtained by a computer-generated nonlinear least squares fit using GraphPad Prism 8.1 (GraphPad Software, San Diego, CA, United States). Statistical analysis was performed using SPSS ver. 22.0 (IBM, Chicago, IL, United States). The results are presented as mean ± S.D., unless otherwise stated. After testing for the homogeneity of variance, statistical analysis was performed with a one-way ANOVA followed by the LSD post hoc test or unpaired Student’s t-test. A probability (p) of less than 0.05, 0.01, and 0.001 was considered to be statistically significant, highly significant, and extremely significant, respectively.

The conditions of data set [6]: human; ref Ayalasomayajula et al., 2007; Itkonen et al., 2015; cited from earlier work.
In data set [7] the target is T1, OATP1B1 (Homo sapiens, UniProt Q9Y6L6).
T1 sequence (Q9Y6L6 1-691): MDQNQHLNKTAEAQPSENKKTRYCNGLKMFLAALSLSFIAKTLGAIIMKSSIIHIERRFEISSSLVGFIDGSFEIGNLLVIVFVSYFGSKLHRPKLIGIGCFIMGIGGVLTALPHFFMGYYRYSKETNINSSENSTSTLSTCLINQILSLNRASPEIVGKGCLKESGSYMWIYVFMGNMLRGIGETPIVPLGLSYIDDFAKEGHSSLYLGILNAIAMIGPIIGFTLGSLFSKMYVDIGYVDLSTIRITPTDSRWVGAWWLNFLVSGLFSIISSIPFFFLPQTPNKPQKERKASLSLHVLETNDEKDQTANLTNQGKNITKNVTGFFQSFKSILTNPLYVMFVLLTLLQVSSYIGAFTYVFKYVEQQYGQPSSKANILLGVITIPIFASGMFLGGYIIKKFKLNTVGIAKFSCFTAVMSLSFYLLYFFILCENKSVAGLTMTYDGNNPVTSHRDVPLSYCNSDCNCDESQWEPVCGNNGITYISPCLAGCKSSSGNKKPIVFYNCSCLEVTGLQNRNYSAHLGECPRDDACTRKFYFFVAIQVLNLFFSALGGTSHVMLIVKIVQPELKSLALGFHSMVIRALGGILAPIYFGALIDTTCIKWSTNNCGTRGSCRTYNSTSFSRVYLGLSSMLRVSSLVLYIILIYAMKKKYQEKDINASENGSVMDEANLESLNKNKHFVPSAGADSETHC
The data set can be described thus: cell-based. The settings on record: 100 μM. On the procedure: (§2) The OATP1B1, OATP1B3, and mock cells were cultured in the DMEM medium containing 10% fetal bovine serum, penicillin–streptomycin solution (100 U/mL and 0.1 mg/ml), and 0.5 mg/ml geneticin at 37°C in the presence of 5% CO2. The cells were seeded in a 24-well plate at a density of 4×10^5 cells/well and grown for 80–90% confluence. […] After washing the cells three times with transporter buffer at 4°C, the cells were lysed with liquid nitrogen. The lysates were precipitated with methanol and centrifuged at 12,000 rpm at 4°C for 5 min. The supernatant was analyzed by LC-MS/MS. Protein concentration was determined using the Pierce® BCA Protein Assay Kit. All experiments were performed in triplicate.
as §1

The target of a further data set is T2, OATP1B3 (Homo sapiens, UniProt Q9NPD5).
T2 sequence (Q9NPD5 1-702): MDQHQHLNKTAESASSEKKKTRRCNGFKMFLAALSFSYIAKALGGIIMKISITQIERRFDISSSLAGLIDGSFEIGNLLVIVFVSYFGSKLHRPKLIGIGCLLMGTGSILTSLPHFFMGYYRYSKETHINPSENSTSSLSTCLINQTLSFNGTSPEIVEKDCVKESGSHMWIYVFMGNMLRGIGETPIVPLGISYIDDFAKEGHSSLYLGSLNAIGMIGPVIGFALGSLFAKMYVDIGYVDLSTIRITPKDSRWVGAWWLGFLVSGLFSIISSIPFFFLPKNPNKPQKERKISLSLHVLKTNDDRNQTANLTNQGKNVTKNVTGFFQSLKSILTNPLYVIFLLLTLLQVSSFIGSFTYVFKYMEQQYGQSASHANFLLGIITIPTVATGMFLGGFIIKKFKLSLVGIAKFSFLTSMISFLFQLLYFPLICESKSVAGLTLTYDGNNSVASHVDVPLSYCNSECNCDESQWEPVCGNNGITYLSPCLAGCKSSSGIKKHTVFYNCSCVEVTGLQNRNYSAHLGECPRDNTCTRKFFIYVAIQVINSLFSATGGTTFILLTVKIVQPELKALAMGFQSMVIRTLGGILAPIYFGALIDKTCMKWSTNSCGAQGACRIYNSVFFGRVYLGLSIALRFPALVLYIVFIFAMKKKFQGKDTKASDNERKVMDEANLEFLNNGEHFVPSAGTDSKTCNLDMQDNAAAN
The data set is described as follows: cell-based. The settings on record: 100 μM. On the procedure:
as §2, §1

Data set [8] relates to human primary hepatocytes. The data set can be described thus: Cytotoxicity (MTT, AST, LDH) in cryopreserved human hepatocytes. As to conditions: 24 and 96 h incubation. In kind it is cell-based. On the procedure:
Cytotoxicity was determined with MTT assay in cryopreserved human hepatocytes. Thawing and plating of cryopreserved hepatocytes were carried out according to the manufacturer’s protocol. […] 11 μL of 5 mg/ml MTT was added to each well of the plate, and then the plate was incubated at 37°C for 3–4 h. After the medium was aspirated, 150 μL of DMSO was added to dissolve the formazan. The absorbance at 570 nm was measured and corrected for background absorption at 690 nm using a SpectraMax® i3 plate reader (Molecular Devices, Silicon Valley, CA, United States). AST and LDH levels in the medium of parallel processed plates were measured by commercially available assay kits. […] All experiments were performed in triplicate.

The mark [9] stands for this setting: substrate cerivastatin, read-out: IC50 OTAP1B1 (cerivastatin, CER, as substrate).
[10] abbreviates: substrate estrone sulfate, read-out: IC50 OTAP1B1 (estrone sulfate, ES, as substrate).

Like-named read-outs stand apart in the source and are kept apart here.

`COC(=O)[C@H](c1ccccc1Cl)N1CCC2SC(=O)C=C2C1` (stereo partly drawn) [2-Oxo clopidogrel, 2-oxo clopidogrel]: the “fu, fraction unbound in human plasma” value in data set [1] is 0.02 [Tornio et al. (2014)]. Further, the “I1, peak plasma concentration at steady state” value is 0.004 µM in [2] (75 mg CP, calculated from I1 at 300 mg assuming linear pharmacokinetics) and 0.016 [Kim et al. (2016)] μM in data set [3] (300 mg CP, ref Kim et al. (2016)). The “Imax,u, unbound steady-state plasma peak concentration” value was found to be 0.00008 µM in [2] (75 mg CP) and 0.0003 µM in [2] (300 mg CP). In addition, the IC50 was 8.18 µM with OATP1B1 [4] (setting [9]) and 8.97 µM in the data set on OATP1B1 [4] (setting [10]).

For `O=C(O)[C@H](c1ccccc1Cl)N1CCc2sccc2C1` [CPC, clopidogrel carboxylic acid], the “AUC0–12h” value in data set [5] (Group I: single i.v. RSV 5 mg/kg + multiple p.o. CP 27 mg/kg) is given as 299,764 ± 153,504.1 ng×h/mL; in data set [5] (Group III: single p.o. RSV 5 mg/kg + multiple p.o. CP 27 mg/kg), 230,181 ± 109,005.9 ng×h/mL. Further, the Plasma exposure entry in data set [5] (rats, at 12 h post-dose) is reported as “remains high”. In [1], the “fu, fraction unbound in human plasma” value is 0.06 [Tornio et al. (2014)]. The Elimination half-life in data set [3] (ref Sanofi-Aventis, 2011) was 8 h.

On to `O=C(O)[C@H]1O[C@@H](OC(=O)[C@H](c2ccccc2Cl)N2CCc3sccc3C2)[C@H](O)[C@@H](O)[C@@H]1O` [Clopidogrel acyl glucuronide, clopidogrel acyl-β-D-glucuronide], for which the “fu, fraction unbound in human plasma” value in data set [1] is 0.1 [Tornio et al. (2014)]. The “Imax,u, unbound steady-state plasma peak concentration” value in data set [2] (75 mg CP) stood at 0.172 µM; in data set [2] (300 mg CP) it was 0.477 µM. For the same compound, the “I1, peak plasma concentration at steady state” value was 1.72 [Itkonen et al. (2015)] μM in data set [3] (75 mg CP, ref Itkonen et al. (2015)) and 4.77 [Itkonen et al. (2015)] μM in data set [3] (300 mg CP, ref Itkonen et al. (2015)). Further, the figures for the half-maximal inhibitory concentration (IC50) in the data set on OATP1B1 [4] (setting [9]) and in the data set with OATP1B1 [4] (setting [10]) were 10.9 µM and 33.5 µM, respectively.

As for `CC(C)n1c(/C=C/C(O)CC(O)CC(=O)O)c(-c2ccc(F)cc2)c2ccccc21` (stereo not drawn) [fluvastatin], the “Effect of concomitant CP on plasma concentration of the statin” value in [6] is on record as “did not change”.

For the compound `O=C(O)C[C@H](O)C[C@H](O)/C=C/c1c(C2CC2)nc2ccccc2c1-c1ccc(F)cc1` [pitavastatin], in [6], the “Effect of concomitant CP on plasma concentration of the statin” value is given as “did not change”.

Consider `CO[C@H]1/C=C/O[C@@]2(C)Oc3c(C)c(O)c4c(O)c(c(/C=N/N5CCN(C)CC5)c(O)c4c3C2=O)NC(=O)/C(C)=C\C=C\[C@H](C)[C@H](O)[C@@H](C)[C@@H](O)[C@@H](C)[C@H](OC(C)=O)[C@@H]1C` [rifampin], for which the “Inhibition of RSV uptake by OATP1B1 cells (positive control)” value at OATP1B1 [7] is “significantly inhibited”. Also, the “Inhibition of RSV uptake by OATP1B3 cells (positive control)” value at OATP1B3 is given as “significantly inhibited”.

With `CC/C(=C(\c1ccccc1)c1ccc(OCCN(C)C)cc1)c1ccccc1` [tamoxifen], the “Cytotoxicity (MTT)” value in data set [8] is “Dose-dependent cytotoxicity”.

One may read the IC50 as the concentration at which inhibition is half-maximal.
